16 compounds from US8669254B2, “Pyridine, pyridazine, pyrimidine or pyrazine carboxamides as HDL-cholesterol raising agents” (Hoffman-La Roche Inc., priority 2010, dated 2014) can be followed below.

Read-outs that look alike come from different tables or passages of the source.

One experiment deals with ABCA1 protein. The experiment in a line: Detection of upregulation of ABCA1 protein in cells (ApoA-I binding, high content image analysis). It is filed as cell-based. As to conditions: THP-1 macrophage cells; for EC50: ABCA1 protein detection assay; for % increase of ABCA1 at 3 μM: compound at 3 μM, 24 hrs. Here is the method:
The ability of compounds of the invention to increase the level of ABCA1 protein is determined in replicate cultures of THP-1 macrophage cells in 96-well microplates. Cells are plated at an initial density of 100,000 cells/well in 100 μl medium and differentiated to adherent macrophages with the addition of PMA (100 nM) for 68 hrs in 10% fetal bovine serum, 3 μl/L of b-mercaptoethanol, RPMI-1640 medium. Then, cells are incubated with RPMI-1640 medium containing 1% FCS, 25 μg/ml acetylated LDL, for 24 hours at 37°. Following incubation with acetylated LDL, cells are washed twice with 50 μl PBS and incubated with 100 μl of RPMI-1640 medium containing the compound of interest solubilized in DMSO for an additional 24 hrs. The final DMSO concentration in presence of cells is maintained at 0.5%. ApoA-I binding assay using High Content Image Analysis is initiated by replacing with fresh medium, RPMI without Phenol Red, 0.2% BSA containing AlexaFluor®647 labeled ApoA-I for 2 h/37° C./5% CO2. Then, cells are fixed with 4% Formaldehyde in PBS (15 min, RT). Following Nuclei are stained with Hoechst solution (3 μM PBS) and Cytoplasm with Cell Mask Blue (2 μg/ml PBS), 15 min, RT. Finally the stained cells are fixed with a second round of formaldehyde treatment. Fixed stained cells are washed and kept in PBS at 4° C. and can be read immediately until one month after preparation.
The Alexa Fluor 647-labeled Apolipoprotein A-I (20 nM) was prepared as follows: Human recombinant Apolipoprotein A-I (ApoA-I) was exchanged to a buffer of 0.02 M NaHCO3 at pH 8.2 on an NAP desalting column (GE Healthcare) and brought to a concentration to 40 μM (1.13 mg/ml) by adjustment with the same buffer. The ApoA-I was fluorescently labeled by incubation with Alexa Fluor carboxylic acid succimidyl ester (Alexa Fluor 647, Invitrogen A-20006) at a 2:1 molar ratio (Alexa to ApoA-I) for 1 h under shaking at RT). The remaining unconjugated label was removed by buffer exchange to 0.02M NaHCO3 at pH 8.2.
Imaging and data collection were performed on an OPERA confocal microplate imaging reader using a 20× water immersion objective and UV360 or 405 laser to identify the cell nuclei and a 635 laser to identify the fluorescent ApoA-I. Eight fields of view are captured per well. Image capture and analysis was performed with the Acapella software. Background fluorescence detected in control wells without ApoA-I was subtracted.
Using XLfit3 program (ID Business Solutions Ltd. UK), the model 205 for Dose Response One Site is used to calculate the EC50 values. […] Particularly, the compounds of the present invention have EC50 values in a range of 0.1 μM to 3 μM.

The target of the next experiment is T1, human CB1 receptor (Homo sapiens, UniProt P21554).
T1 construct: expressed in transfected cells; host or cells: human embryonic kidney (HEK) cells, Semliki Forest Virus system, membrane preparation
The experiment in a line: CB1 receptor affinity ([3H]-CP-55,940 displacement). As to conditions: read-out: CB1 receptor affinity [% inhibition @ 10 μM]. It is filed as binding. As for the experimental part:
(§1) The affinity of the compounds of the invention for cannabinoid receptors was determined using membrane preparations of human embryonic kidney (HEK) cells in which the human CB1 receptor is transiently transfected using a Semliki Forest Virus system in conjunction with [3H]-CP-55,940 as radioligand. After incubation of freshly prepared cell membrane preparation with the [^3H]-ligand, with or without addition of compounds of the invention, separation of bound and free ligand was performed by filtration over glass fiber filters. Radioactivity on the filter was measured by scintillation counting.
(§2) The ability of the compounds to displace the radioligand [^3H]-CP-55,940 was measured at a concentration of 10 μM and values provided as [% inhibition @ 10 μM] both for the CB 1 and CB2 receptor assay, The lower % inhibition is, the lower the likelihood of side effects based on CB1 or CB2 receptor inhibition is.

The next experiment concerns the target T2, human CB2 receptor (Homo sapiens, UniProt P34972).
T2 construct: expressed in transfected cells; host or cells: human embryonic kidney (HEK) cells, Semliki Forest Virus system, membrane preparation
The experiment in a line: CB2 receptor affinity ([3H]-CP-55,940 displacement). It is filed as binding. As to conditions: HEK cell membranes, radioligand [3H]-CP-55,940. Here is the method:
as §1, with “cannabinoid CB2” for “cannabinoid”, “CB2” for “CB1”, “[^3H]-CP-55,940” for “[3H]-CP-55,940”
as §2

The mark [1] stands for this setting: 10 μM, HEK cell membranes, radioligand [3H]-CP-55,940.

T1 sequence (P21554 whole entry): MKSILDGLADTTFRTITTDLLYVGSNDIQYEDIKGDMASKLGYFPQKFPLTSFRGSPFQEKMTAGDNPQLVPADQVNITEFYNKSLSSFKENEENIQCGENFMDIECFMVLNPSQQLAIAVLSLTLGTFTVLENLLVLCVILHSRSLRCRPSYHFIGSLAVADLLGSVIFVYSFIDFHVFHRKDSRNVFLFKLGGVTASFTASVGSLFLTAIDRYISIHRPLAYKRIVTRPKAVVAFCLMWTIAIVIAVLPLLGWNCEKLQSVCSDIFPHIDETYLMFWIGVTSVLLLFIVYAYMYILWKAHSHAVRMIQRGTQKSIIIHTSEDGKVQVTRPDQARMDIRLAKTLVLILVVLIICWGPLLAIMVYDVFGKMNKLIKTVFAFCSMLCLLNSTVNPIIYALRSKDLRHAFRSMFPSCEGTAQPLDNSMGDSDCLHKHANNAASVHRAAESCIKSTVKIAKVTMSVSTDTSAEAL
T2 sequence (P34972 whole entry): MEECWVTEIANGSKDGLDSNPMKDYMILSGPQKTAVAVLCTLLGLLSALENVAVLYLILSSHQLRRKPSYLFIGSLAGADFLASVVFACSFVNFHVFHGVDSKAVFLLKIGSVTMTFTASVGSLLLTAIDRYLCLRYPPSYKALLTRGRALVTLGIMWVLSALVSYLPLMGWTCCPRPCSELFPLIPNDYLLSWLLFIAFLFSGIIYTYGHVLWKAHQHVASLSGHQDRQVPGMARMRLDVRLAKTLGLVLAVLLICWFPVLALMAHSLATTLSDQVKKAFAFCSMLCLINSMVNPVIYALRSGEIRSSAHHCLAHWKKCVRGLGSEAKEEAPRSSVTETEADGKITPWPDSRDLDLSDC

Consider `CO/N=C1\CCCC[C@@H]1NC(=O)c1cnc(OCC2CC2)c(-c2ccc(Cl)cc2)c1` [Example 1, 5-(4-Chloro-phenyl)-6-cyclopropylmethoxy-N-{(S)-2-[(E)-methoxyimino]-cyclohexyl}-nicotinamide], for which, in the experiment on ABCA1 protein, the EC50 (usually the concentration giving half of the maximal effect) worked out at 0.7 µM and the “% increase of ABCA1 at 3 μM” value was 87.2% @ 3 μM. On human CB1 receptor, the inhibition (usually how much of the control response was suppressed) at 10 µM amounted to 34%. The compound further yielded an inhibition at 10 µM on human CB2 receptor of 17.2%.
In the case of `CO/N=C1\CCCC[C@@H]1NC(=O)c1cnc(OCC(F)(F)F)c(-c2ccc(Cl)cc2)c1` [Example 2, 5-(4-Chloro-phenyl)-N-{(S)-2-[(E)-methoxyimino]-cyclohexyl}-6-(2,2,2-trifluoro-ethoxy)-nicotinamide], in the experiment with ABCA1 protein, the EC50 is 1.82 µM and the “% increase of ABCA1 at 3 μM” value turned out to be 88.3% @ 3 μM. Further, the inhibition at 10 µM at human CB1 receptor (setting [1]) amounted to 30.8%. This compound also yielded an inhibition at 10 µM at human CB2 receptor of 3.53%.
On to `CC(C)O/N=C1\CCCC[C@@H]1NC(=O)c1cnc(OCC2CC2)c(-c2ccc(Cl)cc2)c1` [Example 3, 5-(4-Chloro-phenyl)-6-cyclopropylmethoxy-N-{(S)-2-[(E)-isopropoxyimino]-cyclohexyl}-nicotinamide], for which the “% increase of ABCA1 at 3 μM” value with ABCA1 protein was determined as 66.4% @ 3 μM. For the same compound, the values for the inhibition at 10 µM at human CB1 receptor (setting [1]) and at human CB2 receptor were 45.7% and 6.86%, respectively.
Regarding `O=C(N[C@H]1CCCC/C1=N\OCC(F)(F)F)c1cnc(OCC2CC2)c(-c2ccc(Cl)cc2)c1` [Example 4, 5-(4-Chloro-phenyl)-6-cyclopropylmethoxy-N-{(S)-2-[(E)-2,2,2-trifluoro-ethoxyimino]-cyclohexyl}-nicotinamide], in the experiment with ABCA1 protein, the “% increase of ABCA1 at 3 μM” value is on record as 90.4% @ 3 μM. The inhibition at 10 µM on human CB1 receptor (setting [1]) turned out to be 48.5%; on human CB2 receptor it was 8.91%.
In the case of `NC(=O)CO/N=C1\CCCC[C@@H]1NC(=O)c1cnc(OCC2CC2)c(-c2ccc(Cl)cc2)c1` [Example 5, N-{(S)-2-[(E)-Carbamoylmethoxyimino]-cyclohexyl}-5-(4-chloro-phenyl)-6-cyclopropylmethoxy-nicotinamide], in the experiment with ABCA1 protein, the EC50 is 2.02 µM and the “% increase of ABCA1 at 3 μM” value was 65.2% @ 3 μM. Besides, the inhibition at 10 µM at human CB1 receptor (setting [1]) is 33.1%. Moreover, at human CB2 receptor, 10 µM produced 15.1% inhibition.
`COCO/N=C1\CCCC[C@@H]1NC(=O)c1cnc(OCC2CC2)c(-c2ccc(Cl)cc2)c1` [Example 6, 5-(4-Chloro-phenyl)-6-cyclopropylmethoxy-N-{(S)-2-[(E)-methoxymethoxyimino]-cyclohexyl}-nicotinamide]: the “% increase of ABCA1 at 3 μM” value with ABCA1 protein stood at 71.9% @ 3 μM. Further, the inhibition at 10 µM on human CB1 receptor (setting [1]) is 36.7%; at human CB2 receptor, 19.2%.
In the experiment with ABCA1 protein, `CO/N=C1\CCCC[C@@H]1NC(=O)c1cnc(OCC(F)(F)F)c(-c2ccc(Cl)c(Cl)c2)c1` [Example 7, 5-(3,4-Dichloro-phenyl)-N-{(S)-2-[(E)-methoxyimino]-cyclohexyl}-6-(2,2,2-trifluoro-ethoxy)-nicotinamide] gave an EC50 of 4.72 µM. Also, in the experiment with ABCA1 protein, the “% increase of ABCA1 at 3 μM” value stood at 84.6% @ 3 μM. The inhibition at 10 µM is 10.5% on human CB1 receptor and 3.56% at human CB2 receptor.
For `CO/N=C1\CCCC[C@H]1NC(=O)c1cnc(OCC(F)(F)F)c(-c2ccc(Cl)c(Cl)c2)c1` [Example 8, 5-(3,4-Dichloro-phenyl)-N-{(R)-2-[(E)-methoxyimino]-cyclohexyl}-6-(2,2,2-trifluoro-ethoxy)-nicotinamide], in that order: 0.81 µM, 63% @ 3 μM, 35.2% and 13.1%.
As to `CO/N=C1\CCCC[C@@H]1NC(=O)c1cc(-c2ccc(Cl)cc2)c(OCC(F)(F)F)cn1` [Example 9, 4-(4-Chloro-phenyl)-5-(2,2,2-trifluoro-ethoxy)-pyridine-2-carboxylic acid {(S)-2-[(E)-methoxyimino]-cyclohexyl}-amide], in the experiment on ABCA1 protein, the “% increase of ABCA1 at 3 μM” value was found to be 71.7% @ 3 μM. The values for the inhibition at 10 µM at human CB1 receptor (setting [1]) and at human CB2 receptor were 15.9% and 37.6%, respectively.
On to `CO/N=C1\CCCC[C@@H]1NC(=O)c1ccc(OCC(F)(F)F)c(-c2ccc(Cl)cc2)n1` [Example 10, 6-(4-Chloro-phenyl)-5-(2,2,2-trifluoro-ethoxy)-pyridine-2-carboxylic acid {(S)-2-[(E)-methoxyimino]-cyclohexyl}-amide], for which, in the experiment with ABCA1 protein, the EC50 came to 1.53 µM. Also, in the experiment with ABCA1 protein, the “% increase of ABCA1 at 3 μM” value amounted to 45.6% @ 3 μM. In addition, the values for the inhibition at 10 µM on human CB1 receptor (setting [1]) and on human CB2 receptor were 0.74% and 19.2%, respectively.
For `O=C(NC/C(=N/O)C1CC1)c1cnc(OCC(F)(F)F)c(-c2ccc(Cl)c(Cl)c2)c1` [Example 11, N-(E)-(2-Cyclopropyl-2-hydroxyimino-ethyl)-5-(3,4-dichloro-phenyl)-6-(2,2,2-trifluoro-ethoxy)-nicotinamide], in the experiment with ABCA1 protein, the “% increase of ABCA1 at 3 μM” value is given as 55.9% @ 3 μM. Also, the inhibition at 10 µM at human CB1 receptor (setting [1]) was 30%; on human CB2 receptor, 44.3%.
As to `CO/N=C(/CNC(=O)c1cnc(OCC(F)(F)F)c(-c2ccc(Cl)c(Cl)c2)c1)C1CC1` [Example 12, N-{2-Cyclopropyl-2-[(E)-methoxyimino]-ethyl}-5-(3,4-dichloro-phenyl)-6-(2,2,2-trifluoro-ethoxy)-nicotinamide], the “% increase of ABCA1 at 3 μM” value in the experiment on ABCA1 protein was found to be 88.4% @ 3 μM. Besides, the values for the inhibition at 10 µM on human CB1 receptor (setting [1]) and at human CB2 receptor were 26.8% and 47.7%, respectively.
Taken in the same sequence, the figures for `CO/N=C(\CNC(=O)c1cnc(OCC(F)(F)F)c(-c2ccc(Cl)cc2)c1)C1CC1` [Example 13, 5-(4-Chloro-phenyl)-N-{2-cyclopropyl-2-[(Z)-methoxyimino]-ethyl}-6-(2,2,2-trifluoro-ethoxy)-nicotinamide] were 66.2% @ 3 μM, 48.6% and 1.52%.
Taken in the same sequence, the figures for `CO/N=C(/CNC(=O)c1cnc(OCC(F)(F)F)c(-c2ccc(Cl)cc2)c1)C1CC1` [Example 14, 5-(4-Chloro-phenyl)-N-{2-cyclopropyl-2-[(E)-methoxyimino]-ethyl}-6-(2,2,2-trifluoro-ethoxy)-nicotinamide] were 157.2% @ 3 μM, 48.2% and 20.9%.
For `CO/N=C1\CCCC[C@H]1NC(=O)c1cc(-c2ccc(Cl)cc2)c(OCC(F)(F)F)nn1` [Example 16, 5-(4-Chloro-phenyl)-6-(2,2,2-trifluoro-ethoxy)-pyridazine-3-carboxylic acid {(R)-2-[(E)-methoxyimino]-cyclohexyl}-amide], in the experiment with ABCA1 protein, it took 10 µM to reach a half-maximal effect (EC50) and the “% increase of ABCA1 at 3 μM” value came out at 55.3% @ 3 μM. Besides, the inhibition at 10 µM on human CB1 receptor (setting [1]) amounted to 25.4%. For the same compound, the inhibition at 10 µM on human CB2 receptor came to 16.6%.
Take `CO/N=C1\CCCC[C@@H]1NC(=O)c1cc(-c2ccc(Cl)cc2)c(OCC(F)(F)F)nn1` [Example 17, 5-(4-Chloro-phenyl)-6-(2,2,2-trifluoro-ethoxy)-pyridazine-3-carboxylic acid {(S)-2-[(E)-methoxyimino]-cyclohexyl}-amide]: the midpoint of the response in the experiment on ABCA1 protein, the EC50, lay at 2.63 µM. Moreover, in the experiment on ABCA1 protein, the “% increase of ABCA1 at 3 μM” value is listed as 76.5% @ 3 μM. Besides, the inhibition at 10 µM at human CB1 receptor (setting [1]) was 16.6%; on human CB2 receptor, 13.6%.
